We go through 33 molecules from ChEMBL document CHEMBL3399972, “Structure-activity relationships of a novel pyranopyridine series of Gram-negative bacterial efflux pump inhibitors” (Bioorg Med Chem, 2015).

The subject of data set [1] is Escherichia coli. Kind of data set: Inhibition of multidrug resistance efflux pump in Escherichia coli assessed as concentration required to reduce levofloxacin MIC by 4-fold by checkerboard assay.
Data set [2] deals with Escherichia coli. As to the kind of experiment: Inhibition of multidrug resistance efflux pump in wild-type Escherichia coli AB1157 assessed as concentration required to reduce piperacillin MIC by 4-fold by checkerboard assay.
In data set [3] the test system is HeLa. As to the kind of experiment: Cytotoxicity against human HeLa cells. Format: cell-based.
For data set [4], the system named is Escherichia coli. As to the kind of experiment: Antibacterial activity against Escherichia coli at 100 uM. Format: functional, organism-based.

Calls of active or inactive are those of the source. How the calls were made is not given here.

With `CC1(C)Cc2c(C#N)c(SCCc3nnn[nH]3)nc(N3CCOCC3)c2CO1`, the INH in data set [1] and in data set [2] was over 100 µM each time. The midpoint of cytotoxicity in data set [3], the CC50, lay at 30.2 µM. For the same molecule, in data set [4], the result was inactive.
For the molecule `COCCN1CCN(c2nc(SCCc3ccccc3F)c(C#N)c3c2COC(C)(C)C3)CC1`, the figures for the INH in data set [1] and in data set [2] were 12.5 µM and 9.4 µM, respectively. The midpoint of cytotoxicity in data set [3], the CC50, lay at 30.6 µM. In data set [4], the result was inactive.
As to `CC1(C)Cc2c(C#N)c(SCCc3ccc(S(=O)(=O)O)cc3)nc(N3CCOCC3)c2CO1`, the INH in data set [1] and in data set [2] was over 100 µM in each case. For the same molecule, in data set [3], the CC50 (commonly the concentration that lowers cell viability or growth by half) came out at 17.2 µM. In addition, the outcome in data set [4] was inactive.
For the molecule `CC1(C)Cc2c(c(N3CCOCC3)nc(SCCc3ccccc3)c2C(N)=O)CO1`, the INH in data set [1] and in data set [2] was over 100 µM throughout. Besides, the result in data set [4] was inactive.
As for `COc1cccc(CCSc2nc(N3CC(C)OC(C)C3)c3c(c2C#N)CC(C)(C)OC3)c1` (stereo not given), the figures for the INH in data set [1] and in data set [2] were 9.4 µM and 1.6 µM, respectively. In data set [3], this molecule had a CC50 of over 100 µM. Besides, the result in data set [4] was inactive.
Consider `CC1(C)Cc2c(C#N)c(SCCC#N)nc(N3CCOCC3)c2CO1`, for which the INH in data set [1] and in data set [2] was over 100 µM each time. The molecule also showed a 50% cytotoxic concentration (CC50) in data set [3] of over 100 µM. In data set [4], the result was inactive.
As to `CC1(C)Cc2c(C#N)c(SCCc3ccccc3)nc(N3CCSCC3)c2CO1`, the INH in data set [1] is over 100 µM; in data set [2], 1.6 µM. The molecule further showed a CC50 in data set [3] of over 100 µM. Moreover, the result in data set [4] was inactive.
Turning to `CC1CN(c2nc(SCCc3ccc(NC(=O)C(C)(C)C)cc3)c(C#N)c3c2COC(C)(C)C3)CC(C)O1` (stereo not given), the INH in data set [1] and in data set [2] was over 100 µM in each case. Moreover, in data set [3], the CC50 is over 100 µM. Besides, the outcome in data set [4] was inactive.
With `COCCN1CCN(c2nc(SCCc3ccncc3)c(C#N)c3c2COC(C)(C)C3)CC1`, the INH was 6.3 µM in data set [1] and 50 µM in data set [2]. In data set [3], half-maximal cytotoxicity (CC50) was put at 95.9 µM. The result in data set [4] was inactive.
The like results for `CC1(C)Cc2c(C#N)c(SCCc3cccc(C#N)c3)nc(N3CCOCC3)c2CO1` were, in that order, 12.5 µM, 3.9 µM, over 100 µM and “inactive”.
The like results for `COCCN1CCN(c2nc(SCCOc3ccccc3)c(C#N)c3c2COC(C)(C)C3)CC1` were, in that order, over 100 µM, 12.5 µM, 33.9 µM and “inactive”.
Turning to `COc1ccccc1CCSc1nc(N2CCOCC2)c2c(c1C#N)CC(C)(C)OC2`, the INH in data set [1] and in data set [2] was 3.1 µM in each case. Also, the CC50 in data set [3] was over 100 µM. Besides, the outcome in data set [4] was inactive.
Consider `CC1(C)Cc2c(C#N)c(SCCc3c[nH]c4ccccc34)nc(N3CCOCC3)c2CO1`, for which the INH in data set [1] amounted to 12.5 µM; in data set [2], 2.4 µM. For the same molecule, it took 44.8 µM to reach half-maximal cytotoxicity in data set [3] (CC50). The outcome in data set [4] was inactive.
On to `CC1(C)Cc2c(C#N)c(SCCc3coc4ccccc34)nc(N3CCOCC3)c2CO1`, for which the INH in data set [1] was over 100 µM; in data set [2], 6.3 µM. This molecule yielded a CC50 in data set [3] of over 100 µM. The result in data set [4] was inactive.
In the case of `CC1(C)Cc2c(C#N)c([S+]([O-])CCc3ccccc3)nc(N3CCOCC3)c2CO1` (stereo not given), the INH in data set [1] and in data set [2] was over 100 µM each time. For the same molecule, the result in data set [4] was inactive.
Take `CC1(C)Cc2c(C#N)c(SCCc3cccnc3)nc(N3CCOCC3)c2CO1`: the INH in data set [1] amounted to 25 µM; in data set [2], 3.1 µM. Also, the CC50 in data set [3] is over 100 µM. The result in data set [4] was inactive.
The like results for `CC1(C)Cc2c(C#N)c(SCCc3cccc(-c4nnn[nH]4)c3)nc(N3CCOCC3)c2CO1` were, in that order, over 100 µM, 12.5 µM, 20.7 µM and “inactive”.
`COCCN1CCN(c2nc(SCCc3cccnc3)c(C#N)c3c2COC(C)(C)C3)CC1`: the figures for the INH in data set [1] and in data set [2] were over 100 µM and 25 µM, respectively. The CC50 in data set [3] is over 100 µM. Besides, the outcome in data set [4] was inactive.
As for `CC1(C)Cc2c(C#N)c(SCCc3ccccn3)nc(N3CCOCC3)c2CO1`, the INH in data set [1] came to 50 µM; in data set [2], 25 µM. Further, in data set [3], the CC50 stood at 78.1 µM. Further, the outcome in data set [4] was inactive.
On to `CC1CN(c2nc(SCCc3ccccc3)c(C#N)c3c2COC(C)(C)C3)CC(C)O1` (stereo not given), for which the CC50 in data set [3] is over 100 µM. Besides, the outcome in data set [4] was inactive.
In the case of `CC1(C)Cc2c(C#N)c(SCCc3ccccc3)nc(N3CCCC3)c2CO1`, the INH in data set [1] and in data set [2] was over 100 µM throughout. For the same molecule, in data set [3], it took 20.2 µM to reach half-maximal cytotoxicity (CC50). In addition, in data set [4], the outcome was inactive.
In the case of `COCCN1CCN(c2nc(SCCc3cccc(OC)c3)c(C#N)c3c2COC(C)(C)C3)CC1`, the INH in data set [1] was found to be 6.3 µM; in data set [2], 4.7 µM. In data set [3], this molecule had a CC50 of 46.5 µM. For the same molecule, in data set [4], the result was inactive.
The like results for `COCCN1CCN(c2nc(SCCc3cccc(F)c3)c(C#N)c3c2COC(C)(C)C3)CC1` were, in that order, over 100 µM, 6.3 µM, 37.9 µM and “inactive”.
The like results for `CC(=O)Oc1cccc(CCSc2nc(N3CCOCC3)c3c(c2C#N)CC(C)(C)OC3)c1` were, in that order, 1.6 µM, 1.6 µM, 48.3 µM and “inactive”.
`CC1(C)Cc2c(C#N)c(S(=O)(=O)CCc3ccccc3)nc(N3CCOCC3)c2CO1`: the INH in data set [1] and in data set [2] was over 100 µM in each case. The result in data set [4] was inactive.
On to `CC1(C)Cc2c(C#N)c(SCCc3cccc(F)c3)nc(N3CCOCC3)c2CO1`, for which the INH was over 100 µM in data set [1] and 4.7 µM in data set [2]. In addition, the half-maximal cytotoxic concentration (CC50) in data set [3] was over 100 µM. The outcome in data set [4] was inactive.
`CC1(C)Cc2c(C#N)c(SCCCc3ccccc3)nc(N3CCOCC3)c2CO1`: the INH in data set [1] and in data set [2] was over 100 µM in each case. Moreover, the result in data set [4] was inactive.
For the molecule `CC1(C)Cc2c(c(N3CCOCC3)nc(SCCc3ccccc3)c2C(=N)NO)CO1`, the INH in data set [1] and in data set [2] was over 100 µM throughout. Also, the result in data set [4] was inactive.
Regarding `N#Cc1c(SCCc2ccccn2)nc(N2CCOCC2)c2c1CCOC2`, the INH in data set [1] and in data set [2] was over 100 µM throughout. Besides, the result in data set [4] was inactive.
For `CC1(C)Cc2c(C#N)c(SCC(=O)c3ccccc3)nc(N3CCOCC3)c2CO1`, the INH in data set [1] and in data set [2] was over 100 µM each time. Besides, in data set [4], the outcome was inactive.
For the molecule `CC1(C)Cc2c(C#N)c(SCC(O)c3ccccc3)nc(N3CCOCC3)c2CO1` (stereo not given), the INH in data set [1] and in data set [2] was over 100 µM in each case. Further, the outcome in data set [4] was inactive.
For the molecule `CC1(C)Cc2c(C#N)c(SCCc3ccccc3F)nc(N3CCOCC3)c2CO1`, the INH in data set [1] was over 100 µM. In data set [3], the CC50 was over 100 µM. Moreover, the result in data set [4] was inactive.
`N#Cc1c(SCCc2ccccc2)nc(N2CCOCC2)c2c1CCOC2`: the INH in data set [1] and in data set [2] was over 100 µM each time. In data set [4], the outcome was inactive.
